Laboratory results from PMC11190223, “Identification of sulfakinin receptor regulating feeding behavior and hemolymph trehalose homeostasis in the silkworm, Bombyx mori” (Scientific Reports, 2024).
“Also recorded” adds a separate entry of the source. Where no end group is shown, it is not given here. [ ]: non-standard residue; d: D form. sY = N[C@@H](Cc1ccc(OS(=O)(=O)O)cc1)C(=O)O

Columns and labels:
BNGR-A9 [1] = assay: Fura-2 AM-based Ca^2+ mobilization assay, BNGR-A9; assay type: cell-based, Bombyx mori; conditions: for Effect of Gαq/PLC inhibitor on BmsSK-triggered Ca^2+ mobilization: FR900359 1 μM or U73122 5 μM
Source text: (§1) The entire coding region of BNGR-A9 (NM_001134272.1) was obtained by PCR and subsequently cloned into pEGFP-N1 and pCMV-Flag vectors using the primers listed in Table S1. The Flag-BNGR-A9 construct was generated for functional assays, including CRE-luciferase, calcium mobilization, and ERK phosphorylation assays, while BNGR-A9-EGFP was created for receptor visualization purposes. Additionally, for expression in the BmN cell system, the BNGR-A9 gene was inserted into the pIZT/V5-His vector. All constructs were validated by DNA sequencing.
(§2) HEK293 cells were cultured with Dulbecco’s Modified Eagle’s Medium (Gibco, NY, USA) supplied with 10% Fetal bovine serum (Gibco, NY, USA) in a 37 °C humidified incubator containing 5% CO2. BmN cells were maintained in TC 100 insect medium (AppliChem, Darmstadt, Germany) supplied with 10% Fetal bovine serum in a 28 °C incubator. Both HEK293 and BmN cells were transfected with X-tremeGENE (Roche, Mannheim, Germany) according to the manufacturer’s instruction.
To monitor the changes of intracellular calcium, Fura-2 AM (Dojindo, Kumamoto, Japan) was utilized as the calcium indicator, following the methodology outlined in a previous study. Briefly, HEK293 cells stably expressing Flag-BNGR-A9 were exposed to various concentrations of Bombyx mori neuropeptides and measured using a fluorescence spectrometer (Tecan Infinite 200 PRO). Calcium levels were determined by the ratio of fluorescence excitation at 340 nm to that at 380 nm. If necessary, cells were pre-treated with U73122, FR900359, or KT5720 for 30 min prior to the initiation of the experiment. For assays involving BmN cells expressing pIZT-BNGR-A9, the procedures were conducted at 28 °C, and HBSS was replaced with HBM (Hepes-Buffered Medium: 140 mM NaCl, 5 mM KCl, 1 mM MgCl2, 1.2 mM Na2HPO4, 5 mM NaHCO3, 10 mM glucose, and 20 mM HEPES–NaOH, CaCl2 (1 mM), pH 6.2).
(§3) Data analysis was conducted using GraphPad Prism (San Diego, CA), with results presented as mean ± SEM. Statistical significance was assessed through Student’s t-test or two-way ANOVA with multiple comparisons, with p values below 0.05 denoted as significant (*p < 0.05, **p < 0.01, ***p < 0.001). Dose–response curves were generated via non-linear curve fitting. Adobe Photoshop was used to process images, ensuring uniform brightness and contrast settings across all conditions. All images and data provided represent findings from a minimum of three independent experiments.

[2] = test system: ERK phosphorylation in silkworm brains; assay: ERK phosphorylation (western blot), silkworm larval brains ex vivo; design: species or system Bombyx mori; conditions: FR900359 1 μM, 30 min; 100 nM BmsSK; silkworm larval brains
Procedure: HEK293 cells with Flag-BNGR-A9 were exposed to 100 nM BmsSK for different durations and then lysed using RIPA buffer (Beyotime, China). For ex vivo assays, brains from 5th instar silkworm larvae were treated with BmsSK (100 nM) for 1, 2, or 8 h, either with a pre-treatment of Gαq inhibitor FR900359 for 30 min or without it. After treatment, samples were lysed, homogenized, and their protein concentrations were determined with a BCA protein kit (Takara, Japan). For western blot analysis, equal amounts of protein lysate were used. Protein expression was analyzed using specific primary antibodies: rabbit monoclonal antibodies for total and phosphorylated ERK from Cell Signaling Technology (MA, USA).

BNGR-A9 [3] = assay: CRE-driven luciferase reporter assay, BNGR-A9; assay type: cell-based, Bombyx mori; conditions: for EC50 / Activation of BNGR-A9 (CRE-driven luciferase activity): 4 h, at least three independent experiments; for EC50: dose-response; for Activation of BNGR-A9 (CRE-driven luciferase activity): 1 μM peptide, with or without forskolin (5 μM)
Source text: as §1, §2
HEK293 and BmN cells were transfected with the different Bombyx receptors (Flag-BNGR-A9, -A24, -A32, or A33 for HEK293 cells, and pIZT-BNGR-A9, -A24, -A32, or A33 for BmN cells) along with the corresponding CRE-reporter plasmid. When cell confluence reached 90–95%, they were treated with various concentrations of Bombyx mori neuropeptides, with or without forskolin. Following a 4-h incubation period, cells were lysed, and luciferase activities were determined using a firefly luciferase kit (Beyotime, Shanghai, China).
as §3

BNGR-A9 [4] = assay: cAMP ELISA in BNGR-A9-expressing HEK293 cells; assay type: cell-based, Bombyx mori; conditions: 1 μM, 15 min, IBMX pretreatment (300 μM, 1 h)
Procedure: 1. Measurement of cAMP accumulation
Cells were seeded in 24-well plates and incubated overnight. Prior to treatment, cells
were pre-treated with the phosphodiesterase inhibitor IBMX (300 μM) for 1 hour.
Subsequently, cells were treated with different Bombyx neuropeptides for 15 minutes.
The reaction was terminated by removing the medium, followed by the addition of
ice-cold PBS and a single wash. Cell lysis was performed, and cAMP formation was
assessed using a competitive binding technique based on an enzyme-linked
immunosorbent assay (ELISA) (Parameter cAMP assay, R&D, Minneapolis, USA)
following the manufacturer's instructions. The results were expressed as the fold
change in cAMP concentration compared to the control concentration in the
2. Determination of Glucose of hemolymph
Silkworm larvae were anesthetized by cooling on ice, after which hemolymph was
collected using a micropipette from an incision made at the abdominal leg.
Approximately 5 mg of phenylthiourea (to achieve a final concentration of 2.5% w/v)
was added to the hemolymph in a 1.5 ml Eppendorf tube to inhibit clotting.
Hemolymph samples from 10 insects were then centrifuged at 12,000 rpm for 10
minutes at 4 °C to sediment any particulates. The glucose concentration in the
hemolymph was determined using a glucose oxidase-peroxidase kit (Shanghai […]
by stimulation with 1μM BmnsSK or BmsSK for 15 min, and the cAMP level was determined […]

BNGR-A9 [5] = assay: IP3 ELISA in BNGR-A9-expressing HEK293 cells; assay type: cell-based, Bombyx mori; conditions: 1 μM, 1 h
Procedure: Figure 6 Bombyx sulfated-sulfakinin mediated activation of BNGR-A9 via Gαq signaling pathway. (A and B) Effects of Gαq inhibitor FR900359 (1 μM) on the CRE-driven luciferase activities in BNGR-A9 expressing HEK293 (A) and BmN (B) cells. BNGR-A9 stable transfected cells were pretreated with FR900359 (1 μM) for 30 min and challenged with 100 nM BmsSK for 4 h. (C) Accumulation of IP3 in HEK293 cells expressing BNGR-A9 in response to Bombyx neuropeptides was assessed. Cells were pre-treated with serum-free DMEM for 1 h, followed by stimulation with 1 μM of the indicated Bombyx neuropeptides for 1 h. The level of IP3 in the supernatant was then determined using the IP3 immunoassay detection kit. (D, E) Effects of Gαq/PLC inhibitors on Flag-BNGR-A9 mediated increase of intracellular Ca^2+ level. Flag-BNGR-A9 expressing HEK293 (D) and BmN (E) cells were pretreated with Gαq inhibitorFR900359 (1 μM), U73122 (5 μM) for 30 min, and incubated with Fura-2 AM for 30 min, followed by challenging with 100 nM BmsSK. (F, G) effects of protein kinase A (PKA) inhibitor KT5720 on BmsSK initiated Ca^2+ in Flag-BNGR-A9-expressing cells. […] After 30 min incubation with Fura-2 AM, the cells were treated with 100 nM BmsSK, and detected with a fluorescence spectrometer. […] Data were analyzed by using a Student’s t-test (*p < 0.05; **p < 0.01). […]

DSK-R1 (CCKLR-17D3) = conditions: cited from earlier work
Source text: Insect SKs mediate their effects via G protein-coupled receptors (GPCRs) located on the cell surface membrane. The Drosophila SK receptor (DSK-R1, also known as CCKLR-17D3) emerged as the first cloned and characterized receptor for insect SKs, displaying high affinity for tyrosine-sulfated SK (sSK) and low affinity for nonsulfated SK (nsSK)[21]. Another receptor, CCKLR-17D1, identified in Drosophila, exclusively responds to sSKs, underscoring the critical role of the sulfated tyrosine residue in SKs for receptor interaction and activity. This specificity for sSKs was also observed in the b ...

[6] = target: T1, BNGR-A9 expressed in BmN cells (pIZT-BNGR-A9) (Bombyx mori) (UniProt B3XXM2)
T1 sequence: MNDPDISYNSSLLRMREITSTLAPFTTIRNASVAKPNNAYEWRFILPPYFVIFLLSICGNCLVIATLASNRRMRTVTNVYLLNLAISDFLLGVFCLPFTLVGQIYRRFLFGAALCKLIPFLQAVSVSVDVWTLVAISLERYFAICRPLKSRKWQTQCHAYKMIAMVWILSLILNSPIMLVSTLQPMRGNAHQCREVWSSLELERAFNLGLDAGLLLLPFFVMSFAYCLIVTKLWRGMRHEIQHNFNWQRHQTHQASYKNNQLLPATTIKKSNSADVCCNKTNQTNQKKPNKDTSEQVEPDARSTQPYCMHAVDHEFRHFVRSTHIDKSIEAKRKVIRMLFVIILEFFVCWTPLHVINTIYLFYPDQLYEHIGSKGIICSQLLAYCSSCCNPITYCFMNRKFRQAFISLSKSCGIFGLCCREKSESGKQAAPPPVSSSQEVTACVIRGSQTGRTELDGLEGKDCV

[7] = target: T2, Flag-BNGR-A9 (Bombyx mori neuropeptide G protein-coupled receptor A9) expressed in HEK293 cells (Bombyx mori) (UniProt B3XXM2)
T2 sequence: T1 sequence

[8] = 30 min pretreatment, 100 nM BmsSK, HEK293 and BmN cells
[9] = CRE-driven luciferase, HEK293 and BmN cells

For `CCCCCCOC(=O)[C@]1(O)C[C@@H]2O[C@@]1(C)n1c3ccccc3c3c4c(c5c6ccccc6n2c5c31)C(=O)NC4` [KT5720, reference compound], the “Effect of PKA inhibitor on BmsSK-induced Ca^2+ response” value (BNGR-A9 [1]; KT5720 10 μM, 30 min pretreatment, 100 nM BmsSK, HEK293 and BmN cells) was “did not affect”.

In the case of `COc1ccc2c(c1)CC[C@@H]1[C@@H]2CC[C@]2(C)[C@@H](NCCCCCCN3C(=O)C=CC3=O)CC[C@@H]12` [U73122, reference compound], the “Effect of Gαq/PLC inhibitor on BmsSK-triggered Ca^2+ mobilization” value (BNGR-A9 [1]; [8]) is reported as “completely blocked”.

In the case of FR900359 [reference compound], the “Effect of Gαq/PLC inhibitor on BmsSK-triggered Ca^2+ mobilization” value (BNGR-A9 [1]; [8]) is reported as “completely blocked; also recorded: completely inhibited” and the “Effect of inhibitor on BmsSK-induced ERK phosphorylation” value [2] is reported as “inhibited”.

In the case of “GDDTFDD^8YGHLRF-NH2 [BmnsSK, Bombyx mori Non-sulfated-sulfakinin, synthetic; nonsulfated version of GDDTFDD^8YGHLRF-NH2]”, the EC50 (BNGR-A9 [3]; BmN cells stably expressing BNGR-A9) is reported as 125 nM, the “Activation efficacy relative to BmsSK” value (BNGR-A9 [3]; [9]) is reported as “less than 30%” and the “Agonist type at BNGR-A9” value (BNGR-A9 [3]; [9]) is reported as “partial agonist”. For the same molecule, the “Activation of BNGR-A9 (CRE-driven luciferase activity)” value (BNGR-A9 [3]; HEK293 and BmN cells) was “could activate BNGR-A9”, the EC50 (BNGR-A9 [3]; HEK293 cells stably expressing BNGR-A9) was 119 nM and the “Ca^2+ response” value (BNGR-A9 [1]; 1 μM peptide, Fura-2 AM, BNGR-A9-expressing HEK293 and BmN cells, three independent experiments) was “triggered responses in BNGR-A9-expressing cells”. For the same molecule, the “Intracellular cAMP level” value (BNGR-A9 [4]) was “remained unchanged” and the “Intracellular IP3 level” value (BNGR-A9 [5]) was “significant elevation”.

In the case of neuropeptide F [reference compound], the “Activation of BNGR-A9 (CRE-driven luciferase activity)” value (BNGR-A9 [3]; HEK293 and BmN cells) is reported as “did not significantly activate”.

In the case of “nsSK: nonsulfated SK, on Drosophila SK receptor (GDDTFDDYGHLRF-NH2)”, the “Affinity for DSK-R1” value (DSK-R1 (CCKLR-17D3)) is given as “low affinity”.

In the case of “sSK: tyrosine-sulfated SK, on Drosophila SK receptor (GDDTFDD[sY]GHLRF-NH2; N-terminus assumed; SMILES CC(C)C[C@H](NC(=O)[C@H](Cc1c[nH]cn1)NC(=O)CNC(=O)[C@H](Cc1ccc(OS(=O)(=O)O)cc1)NC(=O)[C@H](CC(=O)O)NC(=O)[C@H](CC(=O)O)NC(=O)[C@H](Cc1ccccc1)NC(=O)[C@@H](NC(=O)[C@H](CC(=O)O)NC(=O)[C@H](CC(=O)O)NC(=O)CN)[C@@H](C)O)C(=O)N[C@@H](CCCNC(=N)N)C(=O)N[C@@H](Cc1ccccc1)C(N)=O)”, the “Affinity for DSK-R1” value (DSK-R1 (CCKLR-17D3)) is given as “high affinity”.

B1: Bombyx mori Non-sulfated-sulfakinin (peptide)
peptide: GDDTFDDYGHLRF-NH2
For B1, the CRE-driven luciferase reporter, activation efficacy relative to BmsSK, BmN cells [6] was < 30 % of BmsSK, the CRE-driven luciferase reporter, dose-response, BmN cells stably expressing BNGR-A9 [6] was 125 nM and the CRE-driven luciferase reporter, activation efficacy relative to BmsSK, HEK293 cells [7] was < 30 % of BmsSK. The CRE-driven luciferase reporter, dose-response, HEK293 cells stably expressing BNGR-A9 [7] was 119 nM.
